Assay results reported in patent US6140353A, “N-(4-carb-amimidophenyl)glycineamide derivatives” (Hoffmann-La Roche Inc., priority 1997, dated 2000).
Where a name gives a salt, the structure may show the parent alone.

What follows are compounds tested against T1, factor VIIa/tissue factor complex (Homo sapiens, UniProt P08709) (assay: Inhibition of the amidolytic activity of the factor VIIa/tissue factor complex (chromogenic peptide substrate)). Details: chromogenic substrate Chromozym-tPA (3.5 mM), pH 7.5, room temperature, 15 minutes incubation, 10 minutes kinetic reading.
T1 construct: 9 nM of soluble factor VIIa
Format: biochemical
Method: The measurements were carried out on microtiter plates at room temperature. To this end, per well of the plate, 100 μl of a solution of 26 nM of tissue factor, 9 nM of soluble factor VIIa and 8 mM of calcium chloride were added to 25 μl of a solution of the inhibitor in a buffer [pH 7.5, 100 mM, comprising 0.14 M NaCl, 0.1 M N(2-hydroxyethyl)piperazine-N'-(2-ethanesulphonic acid) (HEPES), 0.5 mg/l of fatty-acid-free BSA (bovine serum albumin) and 0.05% NaN3 ]. After an incubation time of 15 minutes, the reaction was started by addition of 50 μl of chromogenic substrate Chromozym-tPA (3.5 mM, MeSO2 -D-Phe-Gly-Arg-paranitroanilide), and the hydrolysis of the substrate was followed spectrophotometrically on a kinetic microtiter plate reader over 10 minutes. Using the plot of the inhibition curves, the Ki values were determined according to the method described in Biochem. J., 55:170-171 (1953).

T1 sequence (P08709 213-466 limits assumed): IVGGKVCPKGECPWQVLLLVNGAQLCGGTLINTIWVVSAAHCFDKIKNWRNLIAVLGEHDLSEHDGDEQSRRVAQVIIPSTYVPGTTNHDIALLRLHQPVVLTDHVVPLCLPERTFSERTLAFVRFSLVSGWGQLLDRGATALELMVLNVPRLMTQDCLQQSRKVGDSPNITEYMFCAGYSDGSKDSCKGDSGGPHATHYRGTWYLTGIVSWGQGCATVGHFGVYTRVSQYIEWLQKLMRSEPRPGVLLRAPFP
T1 sequence (P08709 61-212 partner limits assumed): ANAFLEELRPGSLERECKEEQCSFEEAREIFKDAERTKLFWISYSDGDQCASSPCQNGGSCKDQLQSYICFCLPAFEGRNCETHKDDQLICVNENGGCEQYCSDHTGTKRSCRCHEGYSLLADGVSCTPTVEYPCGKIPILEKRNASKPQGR
T1 sequence (P13726 33-295 partner): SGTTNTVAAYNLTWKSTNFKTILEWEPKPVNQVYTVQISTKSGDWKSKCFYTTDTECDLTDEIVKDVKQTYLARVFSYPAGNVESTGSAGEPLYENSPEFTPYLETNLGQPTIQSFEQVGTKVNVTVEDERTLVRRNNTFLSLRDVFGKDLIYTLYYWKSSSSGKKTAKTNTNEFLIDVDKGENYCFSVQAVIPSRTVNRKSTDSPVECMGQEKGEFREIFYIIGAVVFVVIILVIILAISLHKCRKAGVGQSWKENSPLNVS

Ki [nM] | SMILES
190 | COc1cc(OC)cc(C(Nc2ccc(C(=N)N)cc2)C(=O)NCc2ccccc2)c1 (racemic) [Example 5b, (R,S)-N-benzyl-2-(4-carbamimidoylphenylamino)-2-(3,5-dimethoxyphenyl)acetamide hydrochloride]
280 | COc1cc(C(Nc2ccc(C(=N)N)cc2)C(=O)NCc2ccccc2)cc(OC)c1OC (racemic) [Example 5a, (R,S)-N-benzyl-2-(4-carbamimidoylphenylamino)-2-(3,4,5-trimethoxyphenyl)acetamide hydrochloride]
160 | COc1ccc(C(Nc2ccc(C(=N)N)cc2)C(=O)NC(c2ccccc2)c2ccccc2)cc1OC (racemic) [Example 5c, (R,S)-N-benzhydryl-2-(4-carbamimidoylphenylamino)-2-(3,4-dimethoxyphenyl)acetamide hydrochloride]
170 | COc1cc(C(Nc2ccc(C(=N)N)cc2)C(=O)Nc2ccccc2)ccc1OCc1ccccc1 (racemic) [Example 7s, (R,S)-2-(4-benzyloxy-3-methoxyphenyl)-2-(4-carbamimidoylphenylamino)-N-phenylacetamide acetate]
260 | COc1cc(C(Nc2ccc(C(=N)N)cc2)C(=O)NCc2ccccc2)ccc1OCc1ccc2c(c1)NCCC2 (racemic) [Example 7f, (R,S)-N-benzyl-2-(4-carbamimidoylphenylamino)-2-[3-methoxy-4-(1,2,3,4-tetrahydroquinolin-7-ylmethoxy)phenyl]acetamide acetate]
170 | COc1cc(C(Nc2ccc(C(=N)N)cc2)C(=O)NCc2ccccc2)ccc1OCc1ccc2cnccc2c1 (racemic) [Example 7n]
110 | COc1cc(C(Nc2ccc(C(=N)N)cc2)C(=O)NCc2ccccc2)ccc1OCc1ccc2[nH]ccc2c1 (racemic) [Example 7e, (R,S)-N-benzyl-2-(4-carbamimidoylphenylamino)-2-[4-(1H-indol-5-ylmethoxy)-3-methoxyphenyl]acetamide acetate]
210 | COc1cc(C(Nc2ccc(C(=N)N)cc2)C(=O)NCc2ccccc2)ccc1OCCc1ccccc1 (racemic) [Example 7h, (R,S)-N-benzyl-2-(4-carbamimidoylphenylamino)-2-[3-methoxy-4-phenethyloxyphenyl)acetamide acetate]
44 | CCOc1cc(C(Nc2ccc(C(=N)N)cc2)C(=O)NCc2ccccc2)ccc1OCc1ccccc1 (racemic) [Example 5g, (R,S)-N-benzyl-2-(4-benzyloxy-3-ethoxyphenyl)-2-(4-carbamimidoylphenylamino)acetamide hydrochloride]
110 | CCOc1ccc(C(Nc2ccc(C(=N)N)cc2)C(=O)NCc2ccccc2)cc1OCC (racemic) [Example 5d, (R,S)-N-benzyl-2-(4-carbamimidoylphenylamino)-2-(3,4-diethoxyphenyl)acetamide hydrochloride]
190 | COc1cc(C(Nc2ccc(C(=N)N)cc2)C(=O)NCc2ccccc2)ccc1OCc1ccncc1 (stereo not shown) [Example 7a, N-benzyl-2-(4-carbamimidoylphenylamino)-2-[3-methoxy-4-(pyridin-4-ylmethoxy)phenyl]acetamide acetate]

More lines, now with the values behind:

SMILES | Ki [nM]
COc1cc(C(Nc2ccc(C(=N)N)cc2)C(=O)NCc2ccccc2)c(NS(=O)(=O)c2ccccc2)cc1OCc1ccccc1 (stereo not shown) [Example 8, 2-(2-phenylsulphonylamino-4-benzyloxy-5-methoxyphenyl)-N-benzyl-2-(4-carbamimidoylphenylamino)acetamide acetate] | 150
COc1cc(C(Nc2ccc(C(=N)N)cc2)C(=O)NCc2ccccc2)c(NS(=O)(=O)c2ccccc2)cc1O (stereo not shown) [Example 10, 2-(2-phenylsulphonylamino-4-hydroxy-5-methoxyphenyl)-N-benzyl-2-(4-carbamimidoylphenylamino)acetamide acetate] | 112
COc1cc(C(Nc2ccc(C(=N)N)cc2)C(=O)NCc2ccccc2)ccc1OCc1ccccc1 (racemic) [Example 1, (R,S)-N-benzyl-2-(4-benzyloxy-3-methoxyphenyl)-2-(4-carbamimidoylphenylamino)acetamide hydrochloride] | 50
COc1ccc(C(Nc2ccc(C(=N)N)cc2)C(=O)NCc2ccccc2)cc1OC (racemic) [Example 2a, (R,S)-N-benzyl-2-(4-carbamimidoylphenylamino)-2-(3,4-dimethoxyphenyl)acetamide hydrochloride] | 280
COc1cccc(COc2ccc(C(Nc3ccc(C(=N)N)cc3)C(=O)NCc3ccccc3)cc2OC)c1 (racemic) [Example 6, (R,S)-N-benzyl-2-(4-carbamimidoylphenylamino)-2-[3-methoxy-4-(3-methoxybenzyloxy)phenyl]) acetamide acetate] | 220
